In US20130102580A1, “COMPOSITIONS AND METHODS RELATED TO DEOXYCHOLIC ACID AND ITS POLYMORPHS” (Kythera Biopharmaceuticals, Inc., priority 2011, published 2013):

Legend:
Assay type in all cases: physicochemical
[1] = Slurry stability in EtOH/water (XRPD)
Description: To evaluate form stability under slurry conditions, Forms A and B were slurried in about 1:1.2 v/v EtOH/water at ambient temperature and at 50° C. […] Approximately 217 mg of DCA Form B was mixed with 1.5 mL of EtOH/water (1:2.37 v/v). The mixture was heated at 50° C. with stirring for 2 hours and an aliquot was filtered to isolate wet solids for XRPD analysis.

[2] = Form conversions via heating (XRPD)
Description: 20 mg of DCA Form B was weighed in an alumina crucible and heated from 30° C. to 150° C. at a ramp rate of 10° C./min and then held at 150° C. for 30 minutes. The material was cooled to ambient temperature rapidly on the instrument and analyzed by XRPD.
19 mg of DCA Form B was weighed in an alumina crucible and heated from 30° C. to 135° C. at a ramp rate of 10° C./min and then held at 135° C. for 30 minutes. The material was cooled to ambient temperature rapidly on the instrument and analyzed by XRPD.

[3] = Drying experiments: form conversion and stability on drying under vacuum (XRPD, HPLC); conditions: for Degradation by HPLC after drying: dried further for 24 hours
Description: Conversion of Form C to Form B was evaluated at 40° C. under vacuum. Two different lots of 215 mg and 134 mg of Form C were dried under vacuum at 40° C.
To evaluate the stability of DCA Form B at 50° C. and 70° C., two lots of Form C were dried at 50° C. and 70° C. for 2 hours. […] The samples were dried further for 24 hours and retained for HPLC analysis.
Another drying study was performed to evaluate the stability of Form B DCA dried at 50° C. with deionized water (DI-water) and EtOH. Samples of DCA (2.0 g) were combined with DI water and EtOH. The samples were then dried under vacuum for an extended period of time at 50° C.
The form conversion of Form C to Form B at approximately 45° C. under vacuum was analyzed by XRPD every 20 minutes. FIG. 4 graphically illustrates the conversion of the Form C to Form B upon heating.
All the experiments were cooled at 10° C./h to 20° C. and left to stir overnight. A final portion of deionized water (Water #3) was added and the mixtures were stirred for 3 hours.

Humidity stress (XRPD) = assay: Humidity stress (XRPD)
Description: Approximately 15 mg of Form B lot was stored at 95% relative humidity (RH) at ambient temperature. […] This surprising humidity/temperature stability of Form B was further evidenced from the following experiments. Form B samples were stored at 95% relative humidity (RH) and ambient temperature, and at 75% RH and 40° C. […] The increase of water content appeared to reach a plateau after an initial water sorption period.

[4] = about 1:1.2 v/v EtOH/water, ambient temperature

Row | Compound | Form conversion on slurrying (XRPD) [1, 4] | Relative thermodynamic stability of the polymorphs ([2]; conversions observed upon heating: C→B→D→A) | Form conversion on slurrying (XRPD) ([1]; EtOH/water 1:2.37 v/v, 50° C., 4 hours) | Form conversion on slurrying (XRPD) ([1]; about 1:1.2 v/v EtOH/water, 50° C., 2 hours) | Form conversion on heating (XRPD) ([2]; 30° C. to 135° C. at 10° C./min, held at 135° C. for 30 minutes) | Form conversion on heating (XRPD) ([2]; 30° C. to 150° C. at 10° C./min, held at 150° C. for 30 minutes) | Degradation by HPLC after drying ([3]; 50° C.) | Degradation by HPLC after drying ([3]; 70° C.) | Stability to prolonged heating ([3]; heating up to 70° C.) | Stability by HPLC when dried with DI-water and EtOH ([3]; under vacuum, extended period, 50° C.) | Form conversion under humidity stress (XRPD) (Humidity stress (XRPD); 75% RH, 40° C., 11 days) | Form conversion under humidity stress (XRPD) (Humidity stress (XRPD); 95% RH, ambient temperature, 10 days) | Form conversion under humidity stress (XRPD) (Humidity stress (XRPD); 95% RH, ambient temperature, 11 days) | Polymorphic form by XRPD after drying ([3]; dried at 50° C., 2 hours) | Polymorphic form by XRPD after drying ([3]; dried at 70° C., 2 hours) | Polymorphic form by XRPD after drying ([3]; under vacuum at 40° C., 2 hours, two lots) | Polymorphic form by XRPD after drying ([3]; under vacuum at 40° C., 18 hours) | Polymorphic form by XRPD after drying ([3]; under vacuum at 65° C., 60 hours, solids crystallized from EtOH/water)
1 | C[C@H](CCC(=O)O)[C@H]1CC[C@H]2[C@@H]3CC[C@@H]4C[C@H](O)CC[C@]4(C)[C@H]3C[C@H](O)[C@]12C [Form A, deoxycholic acid] | converted to Form C | most thermodynamically stable polymorph | – | – | – | – | – | – | – | – | – | – | – | – | – | – | – | –
2 | C[C@H](CCC(=O)O)[C@H]1CC[C@H]2[C@@H]3CC[C@@H]4C[C@H](O)CC[C@]4(C)[C@H]3C[C@H](O)[C@]12C [Form B, deoxycholic acid] | did not show any form conversion | – | remained to be Form B | afforded Form C | complete conversion to Form D | complete conversion to Form A | no degradation | no degradation | stable to prolonged heating at up to 70 °C | stable | no form conversion | no conversion to Form C | no form conversion | – | – | – | – | –
3 | C[C@H](CCC(=O)O)[C@H]1CC[C@H]2[C@@H]3CC[C@@H]4C[C@H](O)CC[C@]4(C)[C@H]3C[C@H](O)[C@]12C [Form C, deoxycholic acid] | – | – | – | – | – | – | – | – | – | – | – | – | – | form conversion to Form B was complete | form conversion to Form B was complete | converted to Form B | complete conversion to Form B | converted to Form B
